Among the data in ChEMBL document CHEMBL5729355, “N/O-linked Degrons and Degronimers for protein degradation” (2022) are Kd values, retold here.

The target in this experiment is Protein cereblon/DNA damage-binding protein 1 (Homo sapiens, UniProt Q96SW2). In words: Fluorescence Polarization (FP) Assay for Screening Compound Ligand Binders of CRBN-DDM: Measuring compound ligand binding to CRBN-DDB1 was carried out using an established sensitive and quantitative in vitro fluorescence polarization (FP) based binding assay. (See, I. J. Enyedy et al, J. Med. Chem., 44: 3134324, 2001). Compounds were dispensed from serially diluted DMSO stock into black 384-well compatible fluorescence polarization plates using an Echo acoustic dispenser. Compound binding to CRBN-DDB1 was measured by displacement of either a (−)-Thalidomide-Alexa Fluor® or Pornalidomide-fluorescein conjugated probe dye. A 20 μL mixture containing 400 nM CRBN-DDB1 and 5 nM probe dye in 50 mM Hepes, pH 7.4, 200 mM NaCl, 1% DMSO and 0.05% pluronic acid-127 acid was added to wells containing compound and incubated at room temperature for 60 min. Matching control wells excluding CRBN-DDB1 were used to correct for background fluorescence. Plates were read on an Envision plate reader with appropriate FP filter sets. […]. The class given is protein assay. On the technique in general: Fluorescence polarisation rises when a labelled molecule tumbles more slowly, as on binding a larger partner.
Protein cereblon/DNA damage-binding protein 1, sequence (Q96SW2 whole entry): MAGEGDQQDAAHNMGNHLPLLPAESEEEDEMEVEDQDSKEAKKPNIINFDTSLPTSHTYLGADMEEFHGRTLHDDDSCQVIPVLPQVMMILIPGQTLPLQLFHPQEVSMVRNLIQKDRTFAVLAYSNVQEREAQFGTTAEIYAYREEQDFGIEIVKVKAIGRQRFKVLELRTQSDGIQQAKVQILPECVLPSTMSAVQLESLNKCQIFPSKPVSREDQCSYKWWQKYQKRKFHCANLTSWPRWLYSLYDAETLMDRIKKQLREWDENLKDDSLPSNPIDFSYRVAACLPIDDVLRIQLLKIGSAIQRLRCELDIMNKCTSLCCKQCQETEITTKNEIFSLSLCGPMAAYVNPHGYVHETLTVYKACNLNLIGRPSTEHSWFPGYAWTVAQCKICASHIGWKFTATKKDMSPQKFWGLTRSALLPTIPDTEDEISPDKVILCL
Protein cereblon/DNA damage-binding protein 1, sequence (Q16531 whole entry, further chain): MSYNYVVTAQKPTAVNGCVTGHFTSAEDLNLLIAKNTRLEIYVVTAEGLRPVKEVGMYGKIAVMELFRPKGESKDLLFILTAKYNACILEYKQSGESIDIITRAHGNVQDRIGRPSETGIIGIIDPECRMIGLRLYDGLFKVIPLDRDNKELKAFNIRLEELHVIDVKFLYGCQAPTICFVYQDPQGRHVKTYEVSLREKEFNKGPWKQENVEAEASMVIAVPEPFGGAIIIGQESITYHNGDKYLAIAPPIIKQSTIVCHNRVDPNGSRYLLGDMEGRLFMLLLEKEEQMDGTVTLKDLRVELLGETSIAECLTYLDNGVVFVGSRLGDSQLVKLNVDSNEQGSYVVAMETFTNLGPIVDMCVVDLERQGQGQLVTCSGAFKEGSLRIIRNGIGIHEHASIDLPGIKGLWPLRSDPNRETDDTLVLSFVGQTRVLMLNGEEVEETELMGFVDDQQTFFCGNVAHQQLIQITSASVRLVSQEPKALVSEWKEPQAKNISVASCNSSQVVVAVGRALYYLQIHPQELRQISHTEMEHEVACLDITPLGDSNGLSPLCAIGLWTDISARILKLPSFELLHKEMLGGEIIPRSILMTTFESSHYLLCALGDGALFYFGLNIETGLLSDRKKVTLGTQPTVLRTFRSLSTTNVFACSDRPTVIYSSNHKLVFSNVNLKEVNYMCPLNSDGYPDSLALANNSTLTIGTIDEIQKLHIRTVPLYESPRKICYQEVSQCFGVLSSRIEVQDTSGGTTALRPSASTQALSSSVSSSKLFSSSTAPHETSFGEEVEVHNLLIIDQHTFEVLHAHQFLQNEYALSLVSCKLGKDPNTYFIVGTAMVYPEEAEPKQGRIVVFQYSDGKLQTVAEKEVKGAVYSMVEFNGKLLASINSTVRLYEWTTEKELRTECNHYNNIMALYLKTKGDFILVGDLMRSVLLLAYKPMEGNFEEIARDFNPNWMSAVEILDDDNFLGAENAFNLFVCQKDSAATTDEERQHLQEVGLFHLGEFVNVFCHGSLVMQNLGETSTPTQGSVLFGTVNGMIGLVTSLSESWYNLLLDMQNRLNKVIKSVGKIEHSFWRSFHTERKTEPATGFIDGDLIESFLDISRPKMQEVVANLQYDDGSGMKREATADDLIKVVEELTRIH

`Cn1c(NC2CCC(=O)NC2=O)nc2ccccc21` (stereo unspecified): the equilibrium dissociation constant (Kd) was over 100 µM.

By Kd is commonly meant the free concentration of one partner at which half of the binding sites on the other are occupied at equilibrium, for simple one-to-one binding.
